# Tested on: T1, isolated tracheal spirals of the guinea pig (Cavia porcellus)
# T1 construct: the whole of the trachea is roughly freed beginning from the larynx up to the tracheal bifurcation, removed and transferred; from tissue; host or cells: isolated trachea (spiral strips) of male Pirbright white guinea pigs
# Experiment: anticholinergic effectiveness on isolated tracheal spirals (antagonism against acetyl-β-methylcholine chloride)
# Settings: ratio of maximum agonist effect in presence (EAmB) and absence (EAm) of antagonist
# Description: A model for this is the measurement of the anticholinergic effectiveness on isolated tracheal spirals of the guinea pig.
# The test substance used was 3α-benziloyloxynortropane-8-spiro-1'-pyrrolidinium chloride (trospium chloride; MP 194), ipratropium bromide being used as comparison substance.
# There is to be determined the anticholinergic effectiveness of MP 194 in comparison with the reference substance ipratropium bromide on the isolated tracheal spirals of the guinea pig.
# 3.1.1. animal species: guinea pig
# 3.1.2. animal strain: Pirbright white
# 3.3.1. test substance (test antagonist) trospium chloride (MP 194) (M.W. 428)
# 3.3.2. reference substance (reference antagonist) ipratropium bromide (Atrovent) (M.W. 412.4)
# 3.3.3.1. acetyl-β-methylcholine chloride (Sigma) (M.W. 195.7)
# The guinea pig is stunned by a blow on the neck. Subsequently, the whole of the trachea is roughly freed beginning from the larynx up to the tracheal bifurcation, removed and transferred to tempered (37° C.) and carbogenized tyrode solution. After surrounding connective tissue has been removed as far as possible, the preparation is cut up spirally by means of fine scissors at an angle of about 45° and separated into two equal sized sections. After weighing, both preparations are provided proximally and distally with a silk thread. One thread serves for fixing the preparation by means of a loop to the bottom of the bath and the other is connected via a hook with the transducer above the bath vessel.
# Subsequently, the preparations, corresponding to the calibration, are prestressed with about 80 mN and equilibrated from 50-100 minutes. During the equilibration phase, the nutrient solution in the bath vessels is renewed in 15 minute intervals. As soon as the resting muscle tonus of the preparation has stabilized, there takes place the cumulative addition of the agonist, whereby the addition of the next highest concentration first takes place when no further increase of contraction is recognisable (plateau). When the maximum contraction height of the preparation is achieved, the cumulative agonist addition is ended and the preparation is rinsed. After a further equilibration phase (v. supra), the cumulative addition of the agonist is repeated but this time in the presence of the test or reference antagonist.
# 3.6.1. The perfusion part consists of an L-shaped organ bath in the hollow space of which (longer limb) runs a double glass spiral through which the nutrient solution is passed into the actual bath vessel (28 ml. content; shorter limb). This bath vessel is divided into two chambers which are, however, connected together by two transverse connections. […] The inlet chambers as well as the feeding glass spirals are tempered from the outside to 37° C. by a separate liquid circulation. This tempering takes place with the help of a "Colora" ultra-thermostat type K (Colora Messtechnik GmbH, Dusseldorf, Germany) which serves as thermostat and pump. In order, in case of need, always to have available ready-for-use nutrient solution, above the organ bath is provided a double-walled storage container in which the nutrient solution is also tempered and carbogenised. This is connected via a glass stopcock and a polypropylene tube with double glass spiral in the interior of the organ bath.
# 3.6.2. The measurement and recording part includes a transducer (Statham-Universal-Zelle UC-2; Hugo Sachs Elektronic KG, Hugstetten, Germany). By means of a hanging-in weight, a force of 40 mN is produced on the transducer which passes as electrical signal via a connecting cable to a bridge amplifier. The amplification is smoothly so regulated that the force provided corresponds to a constant value on the scale or an analogous value on the millimeter paper of the recorder (dependent upon the amplification; see below). After fixing the organ, the preparation is prestressed to the doubled mark, corresponding to 80 mN. […]
# T1 sequence (H0W1Z3 1-590): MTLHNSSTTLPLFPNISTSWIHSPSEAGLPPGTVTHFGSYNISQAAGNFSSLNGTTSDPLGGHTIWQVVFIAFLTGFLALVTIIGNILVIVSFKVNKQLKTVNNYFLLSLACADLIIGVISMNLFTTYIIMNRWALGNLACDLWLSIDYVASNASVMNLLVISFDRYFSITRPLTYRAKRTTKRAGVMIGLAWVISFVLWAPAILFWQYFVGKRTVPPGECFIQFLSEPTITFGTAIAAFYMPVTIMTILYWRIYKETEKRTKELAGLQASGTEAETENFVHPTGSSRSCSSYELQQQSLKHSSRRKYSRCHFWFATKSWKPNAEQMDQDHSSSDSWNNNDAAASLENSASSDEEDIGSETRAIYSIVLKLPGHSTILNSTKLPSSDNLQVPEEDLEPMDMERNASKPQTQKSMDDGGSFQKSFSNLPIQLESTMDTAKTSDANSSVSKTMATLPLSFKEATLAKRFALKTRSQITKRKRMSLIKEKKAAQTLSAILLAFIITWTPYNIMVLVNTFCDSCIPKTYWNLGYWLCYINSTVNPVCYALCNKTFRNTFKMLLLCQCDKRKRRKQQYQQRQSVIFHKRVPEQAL
structure (smiles),measurement,value
"O=C(O[C@H]1C[C@H]2CC[C@@H](C1)[N+]21CCCC1)C(O)(c1ccccc1)c1ccccc1 [trospium chloride, 3α-benziloyloxynortropane-8-spiro-1'-pyrrolidinium chloride]",EAmB/EAm ± s,1.09 ± 0.22

# Reference: patent publication US4780476A, “Azoniaspironortropanol esters as asthma therapeutics and broncholytics” (Madaus GmbH & Co., priority 1985, dated 1988)
